Measured values: patent US20190256827A1, “EPIGENOME EDITING SYSTEMS AND METHODS” (STC.UNM, priority 2017, published 2019)

How the values were obtained:
[1] = test system: GRM2 locus in HEK293T cells; assay: ChIP-qPCR of FLAG-ABI-P300 and H3K27Ac at the GRM2 locus; type: cell-based, human
Method: (§1) To determine if the new method can be used to modify H3K27Ac at other gene loci, sgRNAs were designed that target the promoter region of other genes with low expression levels in HEK293T cells, including GRM2, HBA and MYOD1 (Table 1).
Human embryonic kidney cell HEK293T (American Type Culture Collection, Manassas, Va.) was cultured in Dulbecco's modified Eagle's medium (DMEM) (Gibco) with 10% FBS (Atlanta Biologicals), 1× GlutaMax (Gibco, Thermo Fisher Scientific, Inc., Waltham, Mass.), and 1× penicillin/streptomycin (Pen/Strep; Gibco, Thermo Fisher Scientific, Inc., Waltham, Mass.). Cells (100,000/ml) were plated in 24-well or 10-cm cell culture plate the day before transfection. For each well of 24-well plate transfection, 500 ng of dCas9-PYL-HA, 420 ng of FLAG-ABI-P300, and a total amount of 200-ng mix of gRNAs, with a 50-ng per each gRNA, were mixed with 50×(v/w) Opti-MEM (Gibco, Thermo Fisher Scientific, Inc., Waltham, Mass.), then incubate with the same volume of 3 μg PEI-Opti-MEM solution for 20 minutes at room temperature. Then, 100 μL of PEI-combined plasmids were added to every single well of 24-well plate and cultured for 24 hours before experiments were performed. For a 10 cm plate, 1 mL of PEI-combined plasmids were needed. After six hours transfection, cells were washed and incubated for another 1-72 hours before experiments were performed.
ChIP protocol was optimized from the method in Molecular Cloning, Fourth edition (Cold Spring Harbor Laboratory Press, 2012). In brief, cells cultured in a 10-cm plate were fixed with 1 mL of cross-linking buffer (0.1 M NaCl, 1 mM EDTA, 0.5 mM EGTA, 50 mM HEPES and 11% formaldehyde), and shaken in room temperature for 15 minutes. Then 1.1 mL of 1.25 M glycine was added to the solution to stop crosslinking. After washing three times in ice cold PBS, cells were scraped and suspended in 10 mL of lysis buffer (50 mM HEPES, 140 mM NaCl, 1 mM EDTA, 10% Glycerol, 0.5% NP40, 0.25% Triton X-100), and rocked at 4° C. for 10 minutes. […]

[2] = test system: GRM2 mRNA in HEK293T cells; assay: qPCR of GRM2 mRNA levels; type: cell-based, human; details: GRM2 sgRNAs; ABA vs DMSO
Method: as §1
Human embryonic kidney cell HEK293T (American Type Culture Collection, Manassas, Va.) was cultured in Dulbecco's modified Eagle's medium (DMEM) (Gibco) with 10% FBS (Atlanta Biologicals), 1× GlutaMax (Gibco, Thermo Fisher Scientific, Inc., Waltham, Mass.), and 1× penicillin/streptomycin (Pen/Strep; Gibco, Thermo Fisher Scientific, Inc., Waltham, Mass.). Cells (100,000/ml) were plated in 24-well or 10-cm cell culture plate the day before transfection. […]
Total RNA was extracted using the EZNA Total RNA Kit I (Omega Bio-tek, Inc., Norcross, Ga.). qPCR reactions were performed on cDNA prepared from 1,000 ng of total cellular RNA using the High-Capacity cDNA Reverse Transcription Kit (Applied Biosystems Co., Thermo Fisher Scientific, Inc., Foster City, Calif.). […] Data were analyzed using the SDS software, version 2.4 (Applied Biosystems Co., Thermo Fisher Scientific, Inc., Foster City, Calif.), by the ΔΔCt method: the Ct values of target gene were normalized to Ct values of GAPDH, the folds of target gene expression changes were normalized to experimental controls. Analyzed data are reported as the mean±s.e.m. for biological replicates. […]

[3] = GRM2 sgRNAs, ABA treatment for 48 hours

CC1=CC(=O)CC(C)(C)[C@@]1(O)/C=C/C(C)=C\C(=O)O [ABA, abscisic acid] was tested, and the “induction and reversibility of H3K27Ac enrichment at the GRM2 locus” value ([1]; ABA 4-24 hours, then washing and 24 hours without ABA) was “rapidly induced upon ABA addition and reversed after ABA removal”, the “enrichment of FLAG-ABI-P300 at the GRM2 locus” value [1, 3] was “causes the enrichment” and the “enrichment of H3K27Ac at the GRM2 locus” value [1, 3] was “causes the enrichment”. The “level of GRM2 mRNA” value [2] was “increases correspondingly”.
